ChEMBL document CHEMBL4818999, “Pyrido[2, 3-d]pyrimidin-7(8H)-ones as new selective orally bioavailable Threonine Tyrosine Kinase (TTK) inhibitors” (Eur J Med Chem, 2021)

How the values were obtained:
[1] = target: NUAK family SNF1-like kinase 2 (Homo sapiens) (UniProt Q9H093); settings: dose 100.0 nM
A549 = test: Antiproliferative activity against human A549 cells assessed as growth inhibition after 96 hrs by CCK8 assay; type: functional, cell-based; settings: A549, 96 h
HCT-116 [2] = test: Antiproliferative activity against human HCT-116 cells assessed as growth inhibition after 96 hrs by CCK8 assay; type: functional, cell-based; settings: HCT-116, 96 h
[3] = target: Myotonin-protein kinase (Homo sapiens) (UniProt Q09013); settings: dose 100.0 nM
Description: Inhibition of human recombinant DMPK (1 to 549) using Axltide at 100 nM direct filter-binding radiometric kinase activity assay relative to control

[4] = target: Dual specificity protein kinase TTK (Homo sapiens) (UniProt P33981); settings: dose 100.0 nM, time 40.0 min
HCT-116 [5] = test: Induction of apoptosis in human HCT-116 cells assessed as viable cells at 111.1 nM incubated for 48 hrs by annexin V and 7-AAD staining based flow cytometry analysis (reference value: 82.09 %); type: functional; settings: read-out: Activity
NCI-H460 = test: Antiproliferative activity against human NCI-H460 cells assessed as growth inhibition after 96 hrs by CCK8 assay; type: functional, cell-based; settings: NCI-H460, 96 h
[6] = target: Mitogen-activated protein kinase 9 (Homo sapiens) (UniProt P45984); settings: dose 100.0 nM
Description: Inhibition of human recombinant JNK2 using ATF2 at 100 nM direct filter-binding radiometric kinase activity assay relative to control

[7] = Cmax in Sprague-Dawley rat at 5 mg/kg, iv; type: ADME, organism-based; set-up: route intravenous, dose 5 mg/kg; settings: in vivo
[8] = target: Death-associated protein kinase 3 (Homo sapiens, UniProt O43293); settings: dose 100.0 nM
Description: Inhibition of human DAPK3 at 100 nM by direct-filter Binding radiometric assay relative to control

[9] = target: MAP/microtubule affinity-regulating kinase 3 (Homo sapiens, UniProt P27448); settings: dose 100.0 nM
[10] = target: Serine/threonine-protein kinase ULK2 (Homo sapiens) (UniProt Q8IYT8); settings: dose 100.0 nM
Description: Inhibition of human recombinant ULK2 (1 to 306) using casein at 100 nM direct filter-binding radiometric kinase activity assay relative to control

[11] = target: Serine/threonine-protein kinase 16 (Homo sapiens) (UniProt O75716); settings: dose 100.0 nM
Description: Inhibition of human STK16 at 100 nM by direct-filter Binding radiometric assay relative to control

[12] = target: Serine/threonine-protein kinase ULK1 (Homo sapiens) (UniProt O75385); settings: dose 100.0 nM
Description: Inhibition of human recombinat ULK1 (1 to 314) using casein as substrate at 100 nM direct filter-binding radiometric kinase activity assay relative to control

[13] = target: STE20/SPS1-related proline-alanine-rich protein kinase (Homo sapiens) (UniProt Q9UEW8); settings: dose 100.0 nM
Description: Inhibition of human STK39 at 100 nM by direct-filter Binding radiometric assay relative t

COLO 205 = test: Antiproliferative activity against human COLO-205 cells assessed as growth inhibition after 96 hrs by CCK8 assay; type: functional, cell-based; settings: COLO 205, 96 h
[14] = AUC (0 to infinity) in Sprague-Dawley rat at 5 mg/kg, iv; type: ADME, organism-based; set-up: route intravenous, time infinity, dose 5 mg/kg; settings: in vivo
[15] = target: Phosphatidylinositol 4,5-bisphosphate 3-kinase catalytic subunit delta isoform (Homo sapiens, UniProt O00329); test: Binding affinity to wild-type human partial length PIK3CD (R108 to Q1044 residues) expressed in HEK293 cells by active site-directed competition binding based Kinomescan method; type: cell-based
HCT-116 [16] = test: Induction of apoptosis in human HCT-116 cells assessed as early apoptotic cells at 111.1 nM incubated for 48 hrs by annexin V and 7-AAD staining based flow cytometry analysis (reference value: 8.12 %); type: functional
HCT-116 [17] = test: Induction of apoptosis in human HCT-116 cells assessed as late apoptotic cells at 333.3 nM incubated for 48 hrs by annexin V and 7-AAD staining based flow cytometry analysis (reference value: 8.59 %); type: functional
[18] = target: Phosphorylase b kinase gamma catalytic chain, liver/testis isoform (Homo sapiens) (UniProt P15735); settings: dose 100.0 nM
Description: Inhibition of human recombinant PHKG2 using ZIPtide at 100 nM direct filter-binding radiometric kinase activity assay relative to control

HCT-116 [19] = test: Induction of apoptosis in human HCT-116 cells assessed as […] cells at 1000 nM incubated for 48 hrs by annexin V and 7-AAD staining based flow cytometry analysis (reference value: 1.20 %); type: functional
[20] = target: Phosphatidylinositol 3-kinase C2 domain-containing subunit gamma (Homo sapiens, UniProt O75747); test: Binding affinity to human partial length PIK3C2G (M1 to I1446 residues) expressed in mammalian expression system by active site-directed competition binding based Kinomescan method
[21] = target: Death-associated protein kinase 2 (Homo sapiens) (UniProt Q9UIK4); settings: dose 100.0 nM
Description: Inhibition of human recombinant full length DAPK2 using Calmodulin as substrate at 100 nM direct filter-binding radiometric kinase activity assay relative to control

HCT-116 [22] = test: Induction of apoptosis in human HCT-116 cells assessed as necrotic cells at 111.1 nM incubated for 48 hrs by annexin V and 7-AAD staining based flow cytometry analysis (reference value: 1.20 %); type: functional
[23] = target: T1, Dual specificity protein kinase TTK (Homo sapiens, UniProt P33981); test: Binding affinity to wild-type human partial length TTK (N505 to V798 residues) expressed in bacterial expression system by active site-directed competition binding based Kinomescan method
T1 sequence (P33981 whole entry): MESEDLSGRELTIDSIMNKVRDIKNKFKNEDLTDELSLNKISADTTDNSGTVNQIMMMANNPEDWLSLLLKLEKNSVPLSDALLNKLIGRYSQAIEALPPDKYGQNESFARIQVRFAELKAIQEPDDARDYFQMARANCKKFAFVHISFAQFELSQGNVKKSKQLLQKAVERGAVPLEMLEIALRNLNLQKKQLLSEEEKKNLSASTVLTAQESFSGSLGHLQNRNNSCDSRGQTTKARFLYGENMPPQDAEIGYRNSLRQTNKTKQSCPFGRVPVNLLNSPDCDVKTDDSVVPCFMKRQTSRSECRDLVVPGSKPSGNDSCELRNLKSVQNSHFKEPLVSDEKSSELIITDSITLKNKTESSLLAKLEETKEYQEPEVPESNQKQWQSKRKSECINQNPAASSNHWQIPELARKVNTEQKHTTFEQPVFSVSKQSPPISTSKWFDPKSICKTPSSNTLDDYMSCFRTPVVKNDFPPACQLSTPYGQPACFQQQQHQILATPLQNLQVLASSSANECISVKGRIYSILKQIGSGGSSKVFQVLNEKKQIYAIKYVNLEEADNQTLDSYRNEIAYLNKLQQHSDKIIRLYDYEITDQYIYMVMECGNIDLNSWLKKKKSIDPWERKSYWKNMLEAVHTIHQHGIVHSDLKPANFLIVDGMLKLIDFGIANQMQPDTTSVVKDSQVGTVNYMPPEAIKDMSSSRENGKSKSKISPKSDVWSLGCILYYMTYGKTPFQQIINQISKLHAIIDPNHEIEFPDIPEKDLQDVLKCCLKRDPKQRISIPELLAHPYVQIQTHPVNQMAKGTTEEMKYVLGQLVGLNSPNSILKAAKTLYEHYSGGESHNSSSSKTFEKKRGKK

[24] = target: Interleukin-1 receptor-associated kinase 1 (Homo sapiens, UniProt P51617); test: Binding affinity to wild-type human partial length IRAK1 (R194 to S712 residues) expressed in mammalian expression system by active site-directed competition binding based Kinomescan method
[25] = Toxicity in CB17-SCID mouse xenografted with human HCT-116 cells xenografted assessed as liver damage at 50 mg/kg, po administered once daily relative to control; type: organism-based; settings: in vivo

Sequence of Phosphatidylinositol 4,5-bisphosphate 3-kinase catalytic subunit delta isoform (O00329 whole entry, the tested form may be a part, canonical isoform): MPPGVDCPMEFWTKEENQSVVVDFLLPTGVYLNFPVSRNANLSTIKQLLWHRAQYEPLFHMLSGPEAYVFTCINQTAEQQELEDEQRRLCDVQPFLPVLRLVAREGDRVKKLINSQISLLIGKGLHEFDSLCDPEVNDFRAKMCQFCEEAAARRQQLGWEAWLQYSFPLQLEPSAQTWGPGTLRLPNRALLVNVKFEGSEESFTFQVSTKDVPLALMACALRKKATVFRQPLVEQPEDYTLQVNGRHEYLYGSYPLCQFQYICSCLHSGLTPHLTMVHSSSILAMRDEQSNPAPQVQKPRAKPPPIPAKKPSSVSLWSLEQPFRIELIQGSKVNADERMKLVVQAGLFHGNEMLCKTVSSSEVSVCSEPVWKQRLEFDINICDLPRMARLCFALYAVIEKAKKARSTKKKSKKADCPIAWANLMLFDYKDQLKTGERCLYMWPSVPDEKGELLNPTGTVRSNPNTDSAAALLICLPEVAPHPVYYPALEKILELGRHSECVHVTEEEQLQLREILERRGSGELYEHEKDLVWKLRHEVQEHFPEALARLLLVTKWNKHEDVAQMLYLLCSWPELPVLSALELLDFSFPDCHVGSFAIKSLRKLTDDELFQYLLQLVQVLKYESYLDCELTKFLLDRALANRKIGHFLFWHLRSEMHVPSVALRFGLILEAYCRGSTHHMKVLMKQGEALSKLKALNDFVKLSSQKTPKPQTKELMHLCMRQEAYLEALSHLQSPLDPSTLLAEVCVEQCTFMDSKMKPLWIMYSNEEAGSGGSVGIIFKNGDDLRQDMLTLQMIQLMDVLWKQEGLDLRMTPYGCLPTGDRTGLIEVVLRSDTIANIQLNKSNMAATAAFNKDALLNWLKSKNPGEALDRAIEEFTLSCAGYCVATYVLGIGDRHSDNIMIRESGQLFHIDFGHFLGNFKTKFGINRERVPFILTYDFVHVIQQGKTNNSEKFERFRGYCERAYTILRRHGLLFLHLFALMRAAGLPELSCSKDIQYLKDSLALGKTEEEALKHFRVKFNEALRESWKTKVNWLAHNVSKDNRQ
Sequence of Mitogen-activated protein kinase 9 (Homo sapiens) (P45984 whole entry, looked up): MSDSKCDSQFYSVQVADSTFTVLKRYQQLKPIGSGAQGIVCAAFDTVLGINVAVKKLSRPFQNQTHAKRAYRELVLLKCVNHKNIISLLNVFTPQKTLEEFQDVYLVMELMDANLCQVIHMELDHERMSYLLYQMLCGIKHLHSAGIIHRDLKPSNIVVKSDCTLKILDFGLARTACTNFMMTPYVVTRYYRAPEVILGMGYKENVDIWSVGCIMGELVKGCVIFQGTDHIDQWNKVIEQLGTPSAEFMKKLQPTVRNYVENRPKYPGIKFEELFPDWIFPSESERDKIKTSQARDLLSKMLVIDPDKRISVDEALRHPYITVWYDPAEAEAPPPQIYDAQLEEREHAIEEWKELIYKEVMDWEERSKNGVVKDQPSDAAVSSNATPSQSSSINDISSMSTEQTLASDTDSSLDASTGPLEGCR
Sequence of NUAK family SNF1-like kinase 2 (Homo sapiens) (Q9H093 whole entry): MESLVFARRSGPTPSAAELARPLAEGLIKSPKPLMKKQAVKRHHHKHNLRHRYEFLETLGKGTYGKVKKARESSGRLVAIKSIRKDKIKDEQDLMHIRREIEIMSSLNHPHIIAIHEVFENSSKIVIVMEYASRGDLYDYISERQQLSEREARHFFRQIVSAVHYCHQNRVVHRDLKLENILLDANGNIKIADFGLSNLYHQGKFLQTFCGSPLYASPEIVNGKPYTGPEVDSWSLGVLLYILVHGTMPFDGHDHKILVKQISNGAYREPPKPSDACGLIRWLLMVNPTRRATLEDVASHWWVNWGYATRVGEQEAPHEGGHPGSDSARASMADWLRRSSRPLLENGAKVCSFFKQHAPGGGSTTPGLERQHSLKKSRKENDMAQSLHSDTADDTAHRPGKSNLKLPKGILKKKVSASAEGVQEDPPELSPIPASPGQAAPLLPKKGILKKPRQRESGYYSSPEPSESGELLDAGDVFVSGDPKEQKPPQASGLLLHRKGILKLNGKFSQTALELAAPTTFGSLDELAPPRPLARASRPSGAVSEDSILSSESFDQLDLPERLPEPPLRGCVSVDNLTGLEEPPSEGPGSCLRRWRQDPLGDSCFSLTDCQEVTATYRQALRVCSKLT
Sequence of Serine/threonine-protein kinase ULK2 (Homo sapiens) (Q8IYT8 whole entry): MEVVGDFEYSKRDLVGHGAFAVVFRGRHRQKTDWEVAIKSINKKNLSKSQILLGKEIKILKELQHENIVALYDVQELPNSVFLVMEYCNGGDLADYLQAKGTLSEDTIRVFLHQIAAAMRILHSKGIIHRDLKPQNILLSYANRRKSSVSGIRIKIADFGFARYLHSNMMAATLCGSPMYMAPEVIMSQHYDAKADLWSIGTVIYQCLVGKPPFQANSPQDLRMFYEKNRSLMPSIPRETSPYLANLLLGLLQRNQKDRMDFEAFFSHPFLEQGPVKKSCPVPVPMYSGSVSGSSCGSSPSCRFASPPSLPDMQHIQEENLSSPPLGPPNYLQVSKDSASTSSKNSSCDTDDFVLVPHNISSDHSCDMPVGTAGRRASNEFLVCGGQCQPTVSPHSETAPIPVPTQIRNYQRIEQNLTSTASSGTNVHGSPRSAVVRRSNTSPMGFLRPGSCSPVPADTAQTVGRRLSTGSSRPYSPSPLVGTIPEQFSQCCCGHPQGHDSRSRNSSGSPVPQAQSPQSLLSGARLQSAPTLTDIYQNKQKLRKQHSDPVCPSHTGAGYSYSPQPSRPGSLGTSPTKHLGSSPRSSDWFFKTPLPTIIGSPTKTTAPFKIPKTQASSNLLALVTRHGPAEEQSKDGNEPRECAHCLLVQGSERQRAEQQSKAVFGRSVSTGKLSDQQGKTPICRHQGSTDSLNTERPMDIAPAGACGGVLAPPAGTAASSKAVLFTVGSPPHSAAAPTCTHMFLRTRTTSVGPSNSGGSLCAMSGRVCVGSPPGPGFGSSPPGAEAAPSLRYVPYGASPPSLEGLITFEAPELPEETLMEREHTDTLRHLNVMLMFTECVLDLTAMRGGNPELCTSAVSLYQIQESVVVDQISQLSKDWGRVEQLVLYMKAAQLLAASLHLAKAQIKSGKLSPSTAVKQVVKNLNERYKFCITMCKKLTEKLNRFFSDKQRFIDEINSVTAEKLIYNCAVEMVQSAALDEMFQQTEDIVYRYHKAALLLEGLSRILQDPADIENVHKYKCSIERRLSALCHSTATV
Sequence of Myotonin-protein kinase (Homo sapiens) (Q09013 whole entry): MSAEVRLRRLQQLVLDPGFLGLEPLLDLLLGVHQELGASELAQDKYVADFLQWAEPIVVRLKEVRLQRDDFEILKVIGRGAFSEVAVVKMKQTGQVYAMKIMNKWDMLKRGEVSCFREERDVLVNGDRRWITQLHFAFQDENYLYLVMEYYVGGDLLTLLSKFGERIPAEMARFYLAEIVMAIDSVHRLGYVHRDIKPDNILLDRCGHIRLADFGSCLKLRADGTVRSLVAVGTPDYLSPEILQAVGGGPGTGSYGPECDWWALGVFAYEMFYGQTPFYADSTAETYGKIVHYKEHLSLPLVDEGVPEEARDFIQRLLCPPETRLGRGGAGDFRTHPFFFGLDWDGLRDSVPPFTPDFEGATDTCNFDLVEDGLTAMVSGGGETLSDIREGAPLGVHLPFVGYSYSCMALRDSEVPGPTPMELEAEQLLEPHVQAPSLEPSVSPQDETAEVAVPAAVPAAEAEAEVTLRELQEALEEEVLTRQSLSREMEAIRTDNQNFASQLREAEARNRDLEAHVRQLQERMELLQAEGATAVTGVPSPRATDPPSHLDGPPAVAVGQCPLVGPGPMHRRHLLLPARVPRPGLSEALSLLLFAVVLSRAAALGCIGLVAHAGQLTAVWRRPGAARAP
Sequence of Death-associated protein kinase 3 (O43293 whole entry, looked up): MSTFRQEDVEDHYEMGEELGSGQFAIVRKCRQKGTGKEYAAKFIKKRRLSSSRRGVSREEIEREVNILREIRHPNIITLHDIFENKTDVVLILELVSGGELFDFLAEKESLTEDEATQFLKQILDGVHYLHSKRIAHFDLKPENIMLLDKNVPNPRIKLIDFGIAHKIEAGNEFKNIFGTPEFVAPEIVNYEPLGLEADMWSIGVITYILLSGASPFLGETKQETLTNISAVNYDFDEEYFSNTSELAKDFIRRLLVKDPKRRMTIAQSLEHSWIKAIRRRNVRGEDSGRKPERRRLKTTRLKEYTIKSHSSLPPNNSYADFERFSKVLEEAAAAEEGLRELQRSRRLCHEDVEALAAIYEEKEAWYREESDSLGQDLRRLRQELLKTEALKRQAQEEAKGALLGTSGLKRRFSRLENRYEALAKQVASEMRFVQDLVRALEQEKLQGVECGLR
Sequence of Interleukin-1 receptor-associated kinase 1 (P51617 whole entry, the tested form may be a part): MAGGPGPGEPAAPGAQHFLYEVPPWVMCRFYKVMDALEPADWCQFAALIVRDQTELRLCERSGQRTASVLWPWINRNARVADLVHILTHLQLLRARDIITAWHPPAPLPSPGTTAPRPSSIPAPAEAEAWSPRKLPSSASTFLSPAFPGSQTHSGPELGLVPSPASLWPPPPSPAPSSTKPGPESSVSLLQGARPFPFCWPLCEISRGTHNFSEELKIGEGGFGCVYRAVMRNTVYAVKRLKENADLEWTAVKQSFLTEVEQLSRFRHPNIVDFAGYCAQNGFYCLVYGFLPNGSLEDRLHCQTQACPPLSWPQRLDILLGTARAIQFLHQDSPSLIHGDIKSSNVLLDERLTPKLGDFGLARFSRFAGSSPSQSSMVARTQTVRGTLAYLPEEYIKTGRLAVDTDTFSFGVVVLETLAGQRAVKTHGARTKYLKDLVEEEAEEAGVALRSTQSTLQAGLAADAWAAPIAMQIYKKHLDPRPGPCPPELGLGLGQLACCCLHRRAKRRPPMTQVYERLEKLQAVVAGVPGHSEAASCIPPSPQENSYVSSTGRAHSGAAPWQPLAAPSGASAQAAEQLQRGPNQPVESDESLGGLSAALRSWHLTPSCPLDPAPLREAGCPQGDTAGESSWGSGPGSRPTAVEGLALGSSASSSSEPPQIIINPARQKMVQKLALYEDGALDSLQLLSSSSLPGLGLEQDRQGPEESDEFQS

inhibition [1]: 84%
IC50 (A549): 4400 nM
IC50 (HCT-116 [2]): 410 nM
inhibition [3]: 81%
inhibition [4]: 98.1%
IC50 (NCI-H460): 1090 nM
inhibition [6]: 86%
Cmax [7]: 2530 ng/mL
inhibition [9]: 92%
inhibition [10]: 85%
inhibition [11]: 87%
inhibition [12]: 68%
inhibition [13]: 75%
IC50 (COLO 205): 280 nM
AUC(0-inf) [14]: 5310 ng·h/mL
Kd [15]: > 1000 nM
inhibition [18]: 87%
Kd [20]: > 1000 nM
Kd [23]: 0.15 nM
Kd [24]: > 1000 nM
SMILES: COc1cc(N2CCN(C)CC2)ccc1Nc1ncc2c(C)cc(=O)n([C@H]3CC[C@@H](NC(=O)C4CCCCC4)CC3)c2n1
viability at 0.1111 µM (HCT-116 [5]): 89.5%
inhibition [8]: 94.5%
Activity (HCT-116 [16]): 4.46%
Activity (HCT-116 [17]): 13.81%
Activity (HCT-116 [19]): 3.44%
inhibition [21]: 65%
Activity (HCT-116 [22]): 0.75%
Activity [25]: Non-Toxic
